14 compounds from patent US10041115B2, “3′-OH unblocked, fast photocleavable terminating nucleotides and methods for nucleic acid sequencing” (LASERGEN, INC., priority 2011, dated 2018) can be followed below.

A short description of the assay: Photochemical cleavage assays of incorporated nucleotide analogs (365 nm UV light, DT50). To be noted: for DT50 in 1 mM NaN3, 50 mM DTT / DT50 in 1 mM NaN3, No DTT: 365 nm UV, 0.70 W/cm^2; for faster photochemical cleavage rates of ds2 isomers compared with their ds1 counterparts, factor: ds2 vs ds1 isomer of the same analog; for DT50 values: UV photochemical cleavage experiments. It is filed as physicochemical. The procedure:
As used herein, the term “DT50” refers to the amount of time required to cleavage 50% of the base analog incorporated in the primer-template complex.
To compare the rates of photochemical cleavage between the nucleotide analogs described here, a protocol was developed to deliver a daily light intensity output of 0.70±0.01 W/cm^2 to samples, see below.
The power supply was turned on for about 30 min prior to that of the lamp and recirculation bath as described by the manufacturer. The IR liquid filter was cooled to 9° C. Light intensity was determined using a model PM100 power meter (Thorlabs), a 1000 μm pinhole (Edmund Optics), a modified 0.5 mL Eppendorf tube cut in half, and a 3-axis manual translation stage (Newport), see FIG. 5. The half cut Eppendorf tube was positioned in front of the pinhole and power meter detector head to account for the geometric shape distortion of the light as it passes through a reaction solution. The translation stage was then used to align the tube/pinhole/detector device with the highest intensity from the arc beam.
To stabilize its output, the lamp was left on for one hour prior to intensity measurements. Thereafter, the measured power was adjusted by increasing the current from the power supply. In order to achieve intensity (I) of 0.70 W/cm^2, the measured power (P) was adjusted to ˜5.5 mW, according to the equation:
[formula] where r is the radius of pinhole.
The beam was then focused by placing an 0.5 mL Eppendorf tube into the sample holder, the tube of which was modified with an internal alignment card to provide reference lines for volume heights of 10 μL and 20 μL, see FIG. 5. The reference lines enabled the beam to be centered for a given reaction volume. Beam alignment was further verified by observing the mercury arc image of the lamp produced by the rear reflector. A second alignment card was placed into the rotating sample holder to view the image, which when properly aligned using the reflector would produce an inverted arc image on the arc gap itself. This step ensured that arc hotspots were not superimposed, which could cause overheating while maintaining a power output of ˜5.5 mW. The speed of the rotating sample holder was adjusted within a range of 1,200-1,350 rpm using a Nova-Strobe DA Plus stroboscope (Monarch Instrument) by adjusting the motor's torque with an adjustment screw.
Photochemical cleavage assays: Nucleotide analogs were incorporated using 10 μL reactions, as described for the PEP assays, at a final concentration of 100 nM. […] OligoTemplate-2, oligoTemplate-5, and oligoTemplate-4 each hybridized with BODIPY-FL labeled primer-1 were used for C^7-HOMedA, C^7-HOMedG, and HOMedU analogs, respectively. OligoTemplate-8 hybridized with BODIPY-FL labeled primer-3 was used to assay HOMedC analogs. Incorporated reactions were quenched with either 1 mM sodium azide solution; 1 mM sodium azide, 50 mM DTT solution; or reagents C-G (see key in FIG. 4), exposed to 365 nm ultraviolet (UV) light for various time points using our UV deprotector, and then placed on ice.

Where [1] appears, read: Table 2, C^7-HOMedG analogs, average ± 1SD, triplicate.
Where [2] appears, read: Table 3, reversible terminators.
Where [3] appears, read: Table 3, reversible terminators, [a] transient product considered as cleaved product.
Setting [4] is: Table 1, C^7-HOMedA analogs, average ± 1SD, triplicate.

Take `COc1ccc(C(OCc2cn([C@H]3C[C@H](O)[C@@H](COP(=O)(O)OP(=O)(O)OP(=O)(O)O)O3)c3nc(N)[nH]c(=O)c23)C(C)(C)C)c([N+](=O)[O-])c1` (single isomer, unassigned) [dG.V.b ds2, 7-[1-(4-methoxy-2-nitrophenyl)-2,2-dimethyl-propyloxy]methyl-7-deaza-2′-deoxyguanosine-5′-triphosphate]: the “faster photochemical cleavage rates of ds2 isomers compared with their ds1 counterparts, factor” value is 4.5 ×. Under setting [1], the “DT50 in 1 mM NaN3, 50 mM DTT” value amounted to 1.3 ± 0.2 s and the “DT50 in 1 mM NaN3, No DTT” value is 1.1 ± 0.1 s.
With `Nc1nc2c(c(COCc3ccccc3[N+](=O)[O-])cn2[C@H]2C[C@H](O)[C@@H](COP(=O)(O)OP(=O)(O)OP(=O)(O)O)O2)c(=O)[nH]1` [dG.I, 7-(2-nitrobenzyloxy)methyl-7-deaza-2′-deoxyguanosine-5′-triphosphate], the DT50 values came out at 9.2 s. Also, under setting [1], the “DT50 in 1 mM NaN3, 50 mM DTT” value was found to be 8.1 ± 0.2 s and the “DT50 in 1 mM NaN3, No DTT” value came out at 9.2 ± 0.3 s. The “DT50 in 1 mM NaN3, 50 mM DTT” value under setting [2] worked out at 8.1 ± 0.2 s. The “DT50 in 1 mM NaN3, No DTT” value under setting [3] was 9.2 ± 0.3 s.
With `COc1ccc(C(OCc2cn([C@H]3C[C@H](O)[C@@H](COP(=O)(O)OP(=O)(O)OP(=O)(O)O)O3)c3nc(N)[nH]c(=O)c23)C(C)(C)C)c([N+](=O)[O-])c1` (single isomer, unassigned) [dG.V.b ds1, 7-[1-(4-methoxy-2-nitrophenyl)-2,2-dimethyl-propyloxy]methyl-7-deaza-2′-deoxyguanosine-5′-triphosphate], under setting [1], the “DT50 in 1 mM NaN3, 50 mM DTT” value was 4.6 ± 0.3 s and the “DT50 in 1 mM NaN3, No DTT” value amounted to 4.9 ± 0.3 s.
In the case of `CC(C)(C)C(OCc1cn([C@H]2C[C@H](O)[C@@H](COP(=O)(O)OP(=O)(O)OP(=O)(O)O)O2)c2nc(N)[nH]c(=O)c12)c1ccccc1[N+](=O)[O-]` (stereo partly drawn) [dG.V.a ds1, 7-[1-(2-nitrophenyl)-2,2-dimethyl-propyloxy]methyl-7-deaza-2′-deoxyguanosine-5′-triphosphate], under setting [1], the “DT50 in 1 mM NaN3, 50 mM DTT” value worked out at 10.7 ± 0.2 s and the “DT50 in 1 mM NaN3, No DTT” value came to 11.0 ± 0.4 s.
With `COc1cc(C(OCc2cn([C@H]3C[C@H](O)[C@@H](COP(=O)(O)OP(=O)(O)OP(=O)(O)O)O3)c3nc(N)[nH]c(=O)c23)C(C)(C)C)c([N+](=O)[O-])cc1OC` (single isomer, unassigned) [dG.V.d ds2, 7-[1-(4,5-dimethoxy-2-nitrophenyl)-2,2-dimethyl-propyloxy]methyl-7-deaza-2′-deoxyguanosine-5′-triphosphate], the DT50 values was determined as 0.8 s and the “faster photochemical cleavage rates of ds2 isomers compared with their ds1 counterparts, factor” value is 3.0 ×. Besides, under setting [1], the “DT50 in 1 mM NaN3, 50 mM DTT” value stood at 0.8 ± 0.1 s and the “DT50 in 1 mM NaN3, No DTT” value was 0.8 ± 0.1 s.
Take `CC(C)(C)[C@H](OCc1cn([C@H]2C[C@H](O)[C@@H](COP(=O)(O)OP(=O)(O)OP(=O)(O)O)O2)c2nc(N)[nH]c(=O)c12)c1ccccc1[N+](=O)[O-]` [dG.V, 7-[(S)-1-(2-nitrophenyl)-2,2-dimethyl-propyloxy]methyl-7-deaza-2′-deoxyguanosine-5′-triphosphate]: the “DT50 in 1 mM NaN3, 50 mM DTT” value under setting [2] was 2.9 ± 0.2 s. For the same compound, under setting [3], the “DT50 in 1 mM NaN3, No DTT” value came to 3.0 ± 0.1 s.
`CC(C)C(OCc1cn([C@H]2C[C@H](O)[C@@H](COP(=O)(O)OP(=O)(O)OP(=O)(O)O)O2)c2ncnc(N)c12)c1ccccc1[N+](=O)[O-]` (single isomer, unassigned) [dA.III.a ds1, 7-[1-(2-nitrophenyl)-2-methyl-propyloxy]methyl-7-deaza-2′-deoxyadenosine-5′-triphosphate]: under setting [4], the “DT50 in 1 mM NaN3, 50 mM DTT” value was determined as 4.4 ± 0.2 s and the “DT50 in 1 mM NaN3, No DTT” value worked out at 4.5 ± 0.2 s. Besides, under “ds1 isomers of the α-isopropyl C^7-HOMedA set”, the “DT50 value of ds1 isomer compared with the parent dA.I analog” value is “higher”.
Take `CC(C)C(OCc1cn([C@H]2C[C@H](O)[C@@H](COP(=O)(O)OP(=O)(O)OP(=O)(O)O)O2)c2ncnc(N)c12)c1c([N+](=O)[O-])cccc1[N+](=O)[O-]` (single isomer, unassigned) [dA.III.c ds2, 7-[1-(2,6-dinitrophenyl)-2-methyl-propyloxy]methyl-7-deaza-2′-deoxyadenosine-5′-triphosphate]: the “faster photochemical cleavage rates of ds2 isomers compared with their ds1 counterparts, factor” value is recorded as 1.2 ×. Besides, under setting [4], the “DT50 in 1 mM NaN3, 50 mM DTT” value is 2.5 ± 0.1 s and the “DT50 in 1 mM NaN3, No DTT” value turned out to be 2.8 ± 0.2 s.
With `CC(C)(C)C(OCc1cn([C@H]2C[C@H](O)[C@@H](COP(=O)(O)OP(=O)(O)OP(=O)(O)O)O2)c2nc(N)[nH]c(=O)c12)c1ccccc1[N+](=O)[O-]` (single isomer, unassigned) [dG.V.a ds2, 7-[1-(2-nitrophenyl)-2,2-dimethyl-propyloxy]methyl-7-deaza-2′-deoxyguanosine-5′-triphosphate], the “faster photochemical cleavage rates of ds2 isomers compared with their ds1 counterparts, factor” value is 3.1 ×. Further, under setting [1], the “DT50 in 1 mM NaN3, 50 mM DTT” value came out at 3.5 ± 0.3 s and the “DT50 in 1 mM NaN3, No DTT” value worked out at 3.6 ± 0.3 s.
Take `CC(C)C(OCc1cn([C@H]2C[C@H](O)[C@@H](COP(=O)(O)OP(=O)(O)OP(=O)(O)O)O2)c2ncnc(N)c12)c1ccccc1[N+](=O)[O-]` (single isomer, unassigned) [dA.III.a ds2, 7-[1-(2-nitrophenyl)-2-methyl-propyloxy]methyl-7-deaza-2′-deoxyadenosine-5′-triphosphate]: the “faster photochemical cleavage rates of ds2 isomers compared with their ds1 counterparts, factor” value amounted to 2.0 ×. Further, under setting [4], the “DT50 in 1 mM NaN3, 50 mM DTT” value turned out to be 2.1 ± 0.1 s and the “DT50 in 1 mM NaN3, No DTT” value is 2.2 ± 0.1 s.
Consider `Nc1ncnc2c1c(COCc1ccccc1[N+](=O)[O-])cn2[C@H]1C[C@H](O)[C@@H](COP(=O)(O)OP(=O)(O)OP(=O)(O)O)O1` [dA.I, 7-(2-nitro-benzyloxy)methyl-7-deaza-2′-deoxyadenosine-5′-triphosphate], for which the “DT50 in 1 mM NaN3, 50 mM DTT” value stood at 3.5 ± 0.1 s under setting [4] and 3.5 ± 0.1 s under setting [2]. Also, the “DT50 in 1 mM NaN3, No DTT” value was 3.6 ± 0.1 s under setting [4] and 3.6 ± 0.1 s under setting [3].
Consider `COc1ccc([N+](=O)[O-])c([C@@H](OCc2cn([C@H]3C[C@H](O)[C@@H](COP(=O)(O)OP(=O)(O)OP(=O)(O)O)O3)c3nc(N)[nH]c(=O)c23)C(C)(C)C)c1` [dG.VI, 7-[(S)-1-(5-methoxy-2-nitrophenyl)-2,2-dimethyl-propyloxy]methyl-7-deaza-2′-deoxyguanosine-5′-triphosphate], for which, under setting [2], the “DT50 in 1 mM NaN3, 50 mM DTT” value turned out to be 0.8 ± 0.1 s. Besides, the “DT50 in 1 mM NaN3, No DTT” value under setting [3] amounted to 0.8 ± 0.1 s.
For `CC(C)(C)[C@H](OCc1cn([C@H]2C[C@H](O)[C@@H](COP(=O)(O)OP(=O)(O)OP(=O)(O)O)O2)c2ncnc(N)c12)c1ccccc1[N+](=O)[O-]` [dA.V, 7-[(S)-1-(2-nitrophenyl)-2,2-dimethyl-propyloxy]methyl-7-deaza-2′-deoxyadenosine-5′-triphosphate], under setting [2], the “DT50 in 1 mM NaN3, 50 mM DTT” value was determined as 2.0 ± 0.2 s. Besides, the “DT50 in 1 mM NaN3, No DTT” value under setting [3] worked out at 2.1 ± 0.1 s.
In the case of `COc1ccc([N+](=O)[O-])c(C(OCc2cn([C@H]3C[C@H](O)[C@@H](COP(=O)(O)OP(=O)(O)OP(=O)(O)O)O3)c3nc(N)[nH]c(=O)c23)C(C)(C)C)c1` (stereo partly drawn) [dG.V.c ds1, 7-[1-(5-methoxy-2-nitrophenyl)-2,2-dimethyl-propyloxy]methyl-7-deaza-2′-deoxyguanosine-5′-triphosphate], under setting [1], the “DT50 in 1 mM NaN3, 50 mM DTT” value is 3.0 ± 0.1 s and the “DT50 in 1 mM NaN3, No DTT” value worked out at 3.5 ± 0.3 s. The “rate increases, dG.V.c compared with dG.V.a” value (same isomer (ds1 or ds2) of dG.V.c vs dG.V.a) worked out at 3.6 ×. The “faster photochemical cleavage rates compared with the corresponding 4-OMe isomers” value (α-tert-butyl C^7-HOMedG analogs, 5-OMe vs 4-OMe) is 1.4 × fold.
